Assay [1] deals with human Fibroblast Growth Factor 19 (hFGF19). In words: Differential expression of FGF19 in human hepatocytes treated with FXR agonists (transcript profiling). In kind it is cell-based. The conditions noted are these: vs DMSO control.
Experimental: The present study utilized differential gene expression analysis as performed by CuraGen Corporation (New Haven, Conn.) using transcript profiling technology. […] In brief, RNA is extracted from samples and cDNA synthesis is carried out. The cDNAs are then digested with multiple pairs of different restriction enzymes (standard set of 96 different pairs of restriction enzymes with 6 base-pair recognition sites (subsequence pairs)), and the digested products are ligated to complementary adapters containing standardized PCR priming sequences. Multiple PCR cycles are carried out using one biotinylated adapter-specific primer and one fluorescently labeled adapter-specific primer. Following PCR amplification, the biotin-labeled DNA is purified on immobilized streptavidin. Denatured single stranded cDNA fragments are then sized using capillary electrophoresis, and the fluorescently labeled fragments are detected by laser excitation. Since the biotin label is needed for purification and the fluorescent label is needed for detection, all analyzed fragments result from restriction digestion with both enzymes.
Differentially expressed peaks are identified by comparing the composite traces of the experimental samples vs. the control samples using bioinformatics algorithms. […]
Assay [2] concerns primary rat adipocytes. Conditions: added to cultures of primary rat adipocytes; cited from earlier work.
Assay [3] concerns primary rat adipocytes. The conditions noted are these: added to cultures of primary rat adipocytes; cited from earlier work. The source holds these as a separate data set.
For another assay, the system named is FvB mice. Conditions: 1 mg/kg/day, intravenously by osmotically driven implanted pump, vs carrier alone; cited from earlier work.

Regarding `CC(C)c1onc(-c2c(Cl)cccc2Cl)c1COc1ccc(/C=C/c2cccc(C(=O)O)c2)c(Cl)c1` [GW4064X], in assay [1], the “Increase in expression of hFGF19 compared to control cells” value is 36.4 fold.

Turning to “recombinant human FGF-19: recombinant human fibroblast growth factor 19 protein”, the “release of leptin from the cells” value in the assay on primary rat adipocytes [2] is recorded as “increase the release of leptin”. Besides, the uptake of glucose result in the assay with primary rat adipocytes [3] is on record as “decrease the uptake of glucose”. Further, in the assay on FvB mice, the food intake result is “increased food intake” and the oxygen consumption entry is on record as “increased oxygen consumption”.
